The source of these data is patent publication US20050208512A1, “Determining the chemosensitivity of cells to cytotoxic agents” (The Ohio State University Research Foundation, priority 2003, published 2005).

What all share (format): cell-based, human
In test [1] the test system is NCI/ADR-RES cells. As to the kind of experiment: SRB cytotoxicity assay in NCI/ADR-RES cells transfected with ABCB1 or mock siRNA. As to conditions: for Fold reversal: mock vs ABCB1 siRNA; for effect of ABCB1 siRNA on chemosensitivity to the drug: result in words. As for the experimental part:
(§1) Human cancer cells were transfected with ABCB1, ABCB5 or mock siRNA. Drug activity was measured with the SRB assay. IC50 is the concentration that produced 50% inhibition of cell growth compared to controls. Results represent the mean of two or mean±SD of at least three independent experiments.
(§2) We next compared growth-inhibitory IC50 values of siRNA-treated to that of mock-treated cells using a sulforhodamine B (SRB) cell proliferation assay.
(§3) Cell lines, obtained from Division of Cancer Treatment and Diagnosis at NCI, were cultured in RPMI 1640 containing 10% heat-inactivated fetal calf serum in a 5% CO2 incubator at 37° C. Transfection was performed with TransMessenger Transfection Reagent (QIAGEN). To down-regulate ABCB1 or ABCB5, cancer cells were transfected with 0.3 or 0.6 μM siRNA. For RNA extraction, cells were harvested 48 hours after transfection.
(§4) Cytotoxicity assay. 5FU, Camptothecin, and Mitoxathone were obtained from Sigma. The other compounds were from Developmental Therapeutics Program at NCI. […] Anticancer drugs were added in a dilution series in 6 replicated wells. After 4 days, incubation was terminated by replacing the medium with 100 μl 10% trichloroacetic acid (Sigma, St. Louis, Mo.) in 1×PBS, followed by incubation at 4° C. for at least 1 hour. Subsequently, the plates were washed with water and air-dried. The plates were stained with 100 μl 0.4% SRB (Sigma) in 1% acetic acid for 30 min at room temperature. Unbound dye was washed off with 1% acetic acid. After air-drying and re-solubilization of the protein-bound dye in 10 mM Tris-HCl (pH 8.0), absorbance was read by a micro-plate reader at 570 nm. To determine the IC50 values, the absorbance of control cells without drug was set at 1. Dose-response curves were plotted using SigmaPlot software (RockWare, Golden, Colo.). Each experiment was performed independently at least three times.
A general note: The SRB assay estimates cell density from bound dye.

The test system of test [2] is HCT-15 cells. As to the kind of experiment: SRB cytotoxicity assay in HCT-15 cells transfected with ABCB1 or mock siRNA. As to conditions: for Fold reversal: mock vs ABCB1 siRNA. As to the method: as §1, §2, §3, §4
Test [3] has as its system SK-MEL-28 cells. The test is described as follows: SRB cytotoxicity assay in SK-MEL-28 cells transfected with ABCB5 or mock siRNA. To be noted: for IC50: 4 days drug, SRB; for Fold reversal: mock vs ABCB5 siRNA; for effect of ABCB5 siRNA on chemosensitivity to the drug: result in words. As to the method: Human cancer cells were transfected with ABCB1, ABCB5 or mock siRNA. Drug activity was measured with the SRB assay. […] Results represent the mean of two or mean±SD of at least three independent experiments.
To identify suitable ABCB5 domains for siRNA-mediated gene silencing, siRNA duplexes against three target domains were synthesized and transfected into SK-MEL-28 cells.
Transfection was performed with TransMessenger Transfection Reagent (QIAGEN). To down-regulate ABCB1 or ABCB5, cancer cells were transfected with 0.3 or 0.6 μM siRNA. For RNA extraction, cells were harvested 48 hours after transfection.
as §4

The mark [4] stands for this setting: Homo sapiens, 96 h, NCI/ADR-RES cells, ABCB1 siRNA, 4 days drug, SRB, read-out: IC50 (μM) siRNA.
Setting [5] is: Homo sapiens, 96 h, NCI/ADR-RES cells, mock siRNA, 4 days drug, SRB, read-out: IC50 (μM) Mock.
Where [6] appears, read: Homo sapiens, 96 h, HCT-15 cells, ABCB1 siRNA, 4 days drug, SRB, read-out: IC50 (μM) siRNA.
The mark [7] stands for this setting: Homo sapiens, 96 h, HCT-15 cells, mock siRNA, 4 days drug, SRB, read-out: IC50 (μM) Mock.
Where [8] appears, read: Homo sapiens, 96 h, ABCB5 siRNA, read-out: IC50 (μM) siRNA.
Setting [9] is: Homo sapiens, 96 h, mock siRNA, read-out: IC50 (μM) Mock.
[10] abbreviates: ABCB5 siRNA, read-out: IC50 (μM) siRNA.
Where [11] appears, read: mock siRNA, read-out: IC50 (μM) Mock.

“Also recorded” adds a separate entry of the source. Like-named read-outs stand apart in the source and are kept apart here.

As to `COC1=C2C[C@@H](C)C[C@H](OC)[C@H](O)[C@@H](C)/C=C(\C)[C@H](OC(N)=O)[C@@H](OC)/C=C\C=C(/C)C(=O)NC(=CC1=O)C2=O` [Geldanamycin, geldanamycin], the IC50 (in general, the point on the concentration scale where inhibition reaches its midpoint) in test [1] (setting [4]) worked out at 3.6 ± 0.6 µM; in test [1] (setting [5]), 6.84 ± 1.08 µM; in test [2] (setting [6]), 8.2 ± 3.88 µM; in test [2] (setting [7]) it was 9.91 ± 3.96 µM. The Fold reversal in test [1] (NCI/ADR-RES cells) is 1.95 ± 0.45; in test [2] (HCT-15 cells), 1.26 ± 0.14.
In the case of `CC[C@@]1(O)C(=O)OCc2c1cc1n(c2=O)Cc2cc3ccccc3nc2-1` [Camptothecin], the IC50 in test [3] (setting [8]) came to 0.06 µM; in test [3] (setting [9]) it was 0.13 µM. Besides, the Fold reversal in test [3] amounted to 2.17.
As for `C(=N\NC1=NCCN1)/c1c2ccccc2c(/C=N/NC2=NCCN2)c2ccccc12` [Bisantrene], the IC50 in test [1] (Homo sapiens, NCI/ADR-RES, 96 h, read-out: IC50 (μM) Mock) was greater than 100 µM; in test [1] (Homo sapiens, NCI/ADR-RES, 96 h, read-out: IC50 (μM) siRNA), 23.7 µM; in test [2] (Homo sapiens, HCT-15, 96 h, read-out: IC50 (μM) Mock) it was 7.63 µM; in test [2] (Homo sapiens, HCT-15, 96 h, read-out: IC50 (μM) siRNA), 5.47 µM. In addition, the Fold reversal was greater than 4.22 in test [1] (NCI/ADR-RES cells) and 1.39 in test [2] (HCT-15 cells).
Take `CCS(=O)(=O)O.CN(C)C(=O)c1cccc(COc2ccc(N3C(N)=NC(N)=NC3(C)C)cc2Cl)c1` [Baker's antifol, Baker's-soluble-antifol]: the IC50 in test [1] (NCI/ADR-RES cells, ABCB1 siRNA, 4 days drug, SRB, read-out: IC50 (μM) siRNA) was 131 ± 36.7 µM; in test [1] (NCI/ADR-RES cells, mock siRNA, 4 days drug, SRB, read-out: IC50 (μM) Mock) it was 420 ± 120 µM; in test [2] (HCT-15 cells, ABCB1 siRNA, 4 days drug, SRB, read-out: IC50 (μM) siRNA), 33.7 ± 6.23 µM; in test [2] (HCT-15 cells, mock siRNA, 4 days drug, SRB, read-out: IC50 (μM) Mock), 48.2 ± 5.18 µM. In addition, the results for the Fold reversal in test [1] (NCI/ADR-RES cells) and in test [2] (HCT-15 cells) were 3.23 ± 0.45 and 1.47 ± 0.29, respectively.
For the compound `CC[C@@]1(O)C(=O)OCc2c1cc1n(c2=O)Cc2cc3cc(O)ccc3nc2-1` [CPT,10-OH], the IC50 in test [3] (setting [10]) is 0.14 ± 0.02 µM; in test [3] (setting [11]) it was 0.48 ± 0.12 µM. The Fold reversal in test [3] was determined as 3.62 ± 1.35. Besides, the “effect of ABCB5 siRNA on chemosensitivity to the drug” value (“effect of ABCB5 siRNA” for short) in test [3] is given as “Enhanced chemosensitivity”.
As for `COc1cc(NS(C)(=O)=O)ccc1Nc1c2ccccc2nc2ccccc12` [AMSA], the “effect of ABCB5 siRNA” value in test [3] was “no change in potency”.
In the case of `O=c1[nH]cc(F)c(=O)[nH]1` [5FU, fluorouracil], the IC50 in test [1] (setting [4]) was 1000 µM; in test [1] (setting [5]) it was 900 µM; in test [3] (setting [8]) it was 6.43 ± 2.67 µM; in test [3] (setting [9]), 12.4 ± 4.6 µM. Also, the results for the Fold reversal in test [1] (NCI/ADR-RES cells) and in test [3] were 0.90 and 1.96 ± 0.16, respectively. In test [1] (NCI/ADR-RES cells), the “effect of ABCB1 siRNA on chemosensitivity to the drug” value is “unaffected; also recorded: no effect on potency”. For the same compound, in test [3], the “effect of ABCB5 siRNA” value is given as “Enhanced chemosensitivity”.
On to `CC(=O)O[C@H]1C(=O)[C@@]2(C)[C@H]([C@H](OC(=O)c3ccccc3)[C@]3(O)C[C@H](OC(=O)[C@H](O)[C@@H](NC(=O)c4ccccc4)c4ccccc4)C(C)=C1C3(C)C)[C@]1(OC(C)=O)CO[C@@H]1C[C@@H]2O` [Palitaxel, Paclitaxel], for which the IC50 in test [1] (setting [4]) turned out to be 1.06 µM; in test [1] (setting [5]) it was 8.01 µM; in test [2] (setting [6]), 0.18 µM; in test [2] (setting [7]), 0.31 µM. Besides, the Fold reversal worked out at 7.57 in test [1] (NCI/ADR-RES cells) and 1.72 in test [2] (HCT-15 cells). The “effect of ABCB1 siRNA on chemosensitivity to the drug” value in test [1] (NCI/ADR-RES cells) is given as “Enhanced chemosensitivity”.
For `O=C1c2c(O)ccc(O)c2C(=O)c2c(NCCNCCO)ccc(NCCNCCO)c21` [Mitoxathone], the IC50 turned out to be 0.79 µM in test [3] (setting [10]) and 1.08 µM in test [3] (setting [11]). Moreover, the Fold reversal in test [3] was found to be 1.37. Moreover, the “effect of ABCB5 siRNA” value in test [3] is recorded as “no change in potency; also recorded: no effect on potency”.
